Where two headings read alike, the source gives them in different places.

The record followed here is patent US20050209336A1, “EP2 receptor agonists” (priority 2003, published 2005).

One assay concerns the target T1, human EP4 receptor (Homo sapiens, UniProt P35408).
T1 construct: expressed in transfected cells
The assay can be described thus: Radioligand ([3H]PGE2) competition displacement binding, human EP4 receptor membranes. To be noted: [3H]PGE2 displacement, read-out: pKi EP4 (converted). How it is done: (§1) Membranes were prepared from cells stably transfected with human EP receptor cDNA. In brief, cells were cultured to confluency, scraped from culture flasks, and centrifuged (800 g, 8 minutes, 4° C.). Cells were twice washed in ice cold homogenisation buffer containing 10 mMTris-HCl, 1 mM EDTA.2Na, 250 mM sucrose, 1 mM PMSF, 0.3 mM indomethacin, pH 7.4, homogenised and re-centrifuged as before. The supernatant was stored on ice and pellets re-homogenised and re-spun. Supernatants were pooled and centrifuged at 40000 g, 10 minutes, 4° C. Resultant membrane pellets were stored at −80° C. until use.
(§2) For assay, membranes expressing human EP4, EP3, EP2 or EP1 receptors were incubated in Millipore (MHVBN45) plates containing assay buffer, radiolabelled [^3H]PGE2 and 0.1 to 10 000 nM concentrations of compounds. Incubations were performed at suitable temperatures and for suitable times to allow equilibrium to be reached. Non-specific binding was determined in the presence of 10 uM PGE2. Bound and free radiolabel was separated by vacuum manifold filtration using appropriate wash buffers, and bound radiolabel was determined by scintillation counting. Constituents of each of the buffers are included in table 4 below.
(§3) The affinity or pKi of each compound for each receptor was calculated from the concentration causing 50% radioligand displacement (IC50) using the Cheng-Prusoff equation: [formula]
(§4) This approach follows that set out in Kenakin, T. P., Pharmacologic analysis of drug receptor interaction. Raven Press, New York, 2nd edition.

Assay [1] relates to human myometrial smooth muscle. The assay can be described thus: Human myometrial activity: inhibition of electrical field stimulation (EFS) induced contractions. The class given is cell-based. The note with it: for maximum inhibitory effect: inhibition of EFS-induced contractions / EC50: human myometrium strips; for effect on electrically-induced (EFS-evoked) contractions: human myometrium, 10^-6 to 10^-4 M (FIG. 6), 1x10^-7 to 1x10^-4 M; for EC50: inhibition of EFS-evoked response. The method, then: The following describes an in vitro functional assay, using human myometrial smooth muscle, to determine the affinity of the test compounds at the EP2 receptor in human tissues.
Sections of human myometrium were prepared from samples of surgically removed uterus longitudinal myometrial muscle strips (2 mm wide by 10 mm long) were then cut and suspended between stainless steel hooks in organ chambers containing oxygenated (95% O2/5% CO2) Krebs solution at 37° C. The composition of the Krebs solution was as follows: NaCl (118.2 mM), KCl (4.69 mM), MgSO4.7H2O (1.18 mM), KH2PO4 (1.19 mM), glucose (11.1 mM), NaHCO3 (25.0 mM), CaCl2.6H2O (2.5 mM), indomethacin 3×10^−6M.
Tissues were placed under a tension equivalent to 25 mN and left overnight at room temperature. The following day the tissues were maintained at 37° C., washed and placed under a tension of 15 mN then allowed to equilibrate for a period of at least 30 minutes. Responses were recorded using isometric transducers coupled to an Apple Macintosh computer via a MacLab interface. After 60 minutes, the muscle sections of the human myometrium were stimulated electrically (15 ms pulse width, for 10 s every 100 s at 15V and 0.5-40 Hz) using parallel platinum wire electrodes and a Multistim D330 pulse stimulator. Upon electrical stimulation, the strips of human myometrial smooth muscle responded with a rapid contraction. Once the response to electrical stimulation had stabilised (stimulated responses differed by no more than 10%), the strips were exposed to increasing concentrations of test compounds (1×10^−7 to 1×10^−4M, incubated for at least 15 minutes at each concentration). At the end of the experiment, application of sodium nitroprusside (SNP, a nitric oxide donor that causes smooth muscle relaxation) (1×10^−4M) was used to produce a standard relaxatory response. To determine the affinity of the compounds, the concentration of test compound required to produce half-maximal effects (EC50) was calculated, as was the maximum response (calculated as a percentage of the standard response produced with SNP).

For the next assay, the target named is T2, human EP3 receptor (Homo sapiens, UniProt P43115).
T2 construct: expressed in transfected cells
T2 sequence (P43115 1-390): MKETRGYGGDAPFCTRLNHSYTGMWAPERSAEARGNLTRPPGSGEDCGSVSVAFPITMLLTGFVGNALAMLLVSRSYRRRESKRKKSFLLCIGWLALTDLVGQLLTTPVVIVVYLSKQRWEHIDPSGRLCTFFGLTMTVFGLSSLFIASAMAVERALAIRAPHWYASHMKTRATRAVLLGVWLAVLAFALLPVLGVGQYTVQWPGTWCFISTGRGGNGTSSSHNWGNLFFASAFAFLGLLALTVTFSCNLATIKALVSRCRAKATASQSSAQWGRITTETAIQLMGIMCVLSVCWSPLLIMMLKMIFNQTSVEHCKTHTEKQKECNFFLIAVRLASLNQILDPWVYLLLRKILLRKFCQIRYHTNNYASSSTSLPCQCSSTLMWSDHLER
The assay can be described thus: Radioligand ([3H]PGE2) competition displacement binding, human EP3 receptor membranes. The note with it: [3H]PGE2 displacement, read-out: pKi EP3 (converted). The method, then: as §1, §2, §3, §4

Assay [2] has as its system TNFα production by LPS-stimulated monocytes. The assay can be described thus: Monocyte assay: LPS-induced TNFα secretion. To be noted: Homo sapiens, inhibition of TNFα production, LPS 100 ng/ml, 24 h, mean of three donors. The format is cell-based. From the text:
Monocytes are peripheral mononuclear phagocytes that participate in inflammatory responses. TNFα production by monocytes plays an important role in inflammatory responses and can cause considerable tissue damage if the level remained unchecked. Inhibition of TNFα secretion by activated monocytes may provide an attractive therapy for the treatment of inflammatory conditions.
A 96 well in vitro assay was established to determine the effects of test compounds on LPS-induced TNFα secretion by human peripheral blood monocytes. The level of TNFα in assay supernatants was quantified using a standard sandwich ELISA.
Human peripheral blood mononuclear cells from healthy volunteers were isolated from whole blood by Ficoll-Hypaque density centrifugation and adherence to plastic. The non-adherent lymphocyte fraction was used to set up the lymphocyte assay and the adherent monocytes were then recovered by scraping and subsequently used in the monocyte assay.
For the monocyte assay, the cells were plated onto 96-well plates and pre-treated for 1 hour at 37° C./5% CO2 with the test compound (Peak 1, mixture 1 acid; Peak 1, mixture 2 acid; AH-13205 racemate), followed by the addition of LPS (100 ng/ml) to initiate the reaction. The plate was incubated for 24 hours and supernatants were recovered for the measurement of TNFα production by ELISA.

The mark [3] stands for this setting: log scale, read-out: Mean Log (EC50) (converted).

T1 sequence (P35408 whole entry): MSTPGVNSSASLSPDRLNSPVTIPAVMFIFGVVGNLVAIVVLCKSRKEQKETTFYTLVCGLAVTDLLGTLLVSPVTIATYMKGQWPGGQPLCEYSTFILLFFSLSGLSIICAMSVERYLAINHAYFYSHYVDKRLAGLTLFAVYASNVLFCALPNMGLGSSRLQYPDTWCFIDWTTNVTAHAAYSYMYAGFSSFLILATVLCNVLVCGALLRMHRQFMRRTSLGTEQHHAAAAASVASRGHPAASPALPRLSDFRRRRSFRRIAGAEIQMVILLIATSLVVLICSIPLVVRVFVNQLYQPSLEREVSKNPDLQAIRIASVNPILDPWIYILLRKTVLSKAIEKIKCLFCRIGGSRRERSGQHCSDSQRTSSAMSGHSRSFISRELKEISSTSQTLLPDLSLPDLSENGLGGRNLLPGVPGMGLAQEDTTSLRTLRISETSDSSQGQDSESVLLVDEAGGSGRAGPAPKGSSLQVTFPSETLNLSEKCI

As to `CCCCCC(O)c1ccc(C2CCC(=O)C2CCCCCCC(=O)O)cc1` (racemic) [AH13205, (±)-trans-2-[4-(1-hydroxyhexyl)phenyl]-5-oxo-cyclopentaneheptanoic acid, reference compound], the Ki is 25.1 µM at human EP4 receptor and 6.31 µM on human EP3 receptor. Further, in assay [1], the “maximum inhibitory effect: inhibition of EFS-induced contractions” value (“maximum inhibitory effect: inhibition” below) was found to be 49±5%. In addition, the entries for the “effect on electrically-induced (EFS-evoked) contractions” value (“effect on electrically-induced” for short) in assay [1] and in assay [1] (listed as AH-13205) were “concentration-dependent inhibition” and “inhibit electrically-induced contractions”, respectively. Moreover, the concentration for a half-maximal effect (EC50) in assay [1] was 5.01 µM; in assay [2] (read-out: Mean EC50), 19.8 µM; in assay [2] (setting [3]), 19.8 µM.

`CCCCC[C@H](O)c1ccc([C@H]2CCC(=O)[C@@H]2CCCCCCC(=O)O)cc1` (single isomer, unassigned) [Peak 1, Mixture 1 acid]: the values for the Ki on human EP4 receptor and at human EP3 receptor were 10 µM and 2 µM, respectively. In addition, the “maximum inhibitory effect: inhibition” value in assay [1] was 56±5%. In assay [1], the “effect on electrically-induced” value is given as “concentration-dependent inhibition”. In addition, the results for the EC50 in assay [1], in assay [2] (read-out: Mean EC50) and in assay [2] (setting [3]) were 1.26 µM, 1.78 µM and 1.78 µM, respectively.

`CCCCC[C@@H](O)c1ccc([C@H]2CCC(=O)[C@@H]2CCCCCCC(=O)O)cc1` (single isomer, unassigned) [Peak 1, Mixture 2 acid]: the values for the Ki at human EP4 receptor and on human EP3 receptor were 7.94 µM and 15.8 µM, respectively. Further, in assay [1], the “maximum inhibitory effect: inhibition” value is on record as 57±2%. Besides, the “effect on electrically-induced” value in assay [1] was “concentration-dependent inhibition”. Moreover, the EC50 in assay [1] is 5.01 µM; in assay [2] (read-out: Mean EC50) it was 6.73 µM; in assay [2] (setting [3]), 6.73 µM.
